# Data taken from patent US11351178B2, “Selective HDAC6 inhibitors” (ITALFARMACO S.P.A., priority 2017, dated 2022).
# Read-outs that look alike come from different tables or passages of the source.
# Tests used:
# [1] = molecular target: T1, recombinant human HDAC6 (Homo sapiens, UniProt Q9UBN7); assay: Enzymatic screening on recombinant human HDAC6; assay type: biochemical; settings: Table 2
# T1 sequence (Q9UBN7 1-1215): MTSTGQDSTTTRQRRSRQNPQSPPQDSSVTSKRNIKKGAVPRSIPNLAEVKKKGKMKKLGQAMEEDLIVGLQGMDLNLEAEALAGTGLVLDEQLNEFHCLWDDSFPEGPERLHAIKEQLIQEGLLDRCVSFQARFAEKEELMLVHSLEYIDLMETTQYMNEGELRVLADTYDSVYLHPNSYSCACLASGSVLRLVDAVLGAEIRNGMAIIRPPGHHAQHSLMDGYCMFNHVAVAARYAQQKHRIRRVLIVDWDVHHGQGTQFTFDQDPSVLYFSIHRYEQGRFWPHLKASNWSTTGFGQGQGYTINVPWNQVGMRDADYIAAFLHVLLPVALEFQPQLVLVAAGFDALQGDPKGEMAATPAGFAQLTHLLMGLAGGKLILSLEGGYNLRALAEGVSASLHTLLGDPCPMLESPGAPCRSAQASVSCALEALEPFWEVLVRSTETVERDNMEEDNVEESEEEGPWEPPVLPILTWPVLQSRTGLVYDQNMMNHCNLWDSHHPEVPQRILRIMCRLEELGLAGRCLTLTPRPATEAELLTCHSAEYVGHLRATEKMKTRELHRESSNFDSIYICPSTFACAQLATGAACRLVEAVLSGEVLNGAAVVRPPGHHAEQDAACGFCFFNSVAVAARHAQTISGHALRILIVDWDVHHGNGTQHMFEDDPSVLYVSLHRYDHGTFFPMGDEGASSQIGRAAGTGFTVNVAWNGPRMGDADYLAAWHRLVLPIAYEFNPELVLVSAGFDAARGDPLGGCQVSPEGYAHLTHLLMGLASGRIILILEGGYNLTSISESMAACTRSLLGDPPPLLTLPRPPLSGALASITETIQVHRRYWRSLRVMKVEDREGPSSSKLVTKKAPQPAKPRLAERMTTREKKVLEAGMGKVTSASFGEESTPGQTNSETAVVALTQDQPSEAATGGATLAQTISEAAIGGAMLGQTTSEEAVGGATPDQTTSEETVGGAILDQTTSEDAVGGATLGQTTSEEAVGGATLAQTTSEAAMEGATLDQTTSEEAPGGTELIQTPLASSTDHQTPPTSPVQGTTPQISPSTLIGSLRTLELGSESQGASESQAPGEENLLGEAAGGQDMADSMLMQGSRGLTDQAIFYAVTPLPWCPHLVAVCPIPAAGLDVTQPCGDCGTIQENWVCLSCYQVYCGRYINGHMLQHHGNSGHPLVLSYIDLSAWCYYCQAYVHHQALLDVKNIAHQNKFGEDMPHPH
# Summary of the method: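 Buffer for substrate addition: 25 mM Tris-HCl pH 8, 130 mM NaCl, 0.05% Tween-20, 10% glycerol, substrate 2× concentrated (FdL, FdL-Green or trifluoroacetyl-lysine). Recombinant human HDAC was preincubated with compound at 30 °C beforehand, timing isoform-dependent, and the reaction was likewise run at 30 °C.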
# [2] = tested on: B 697 promyelocytic cell line; assay: Cytotoxicity on 697 cell line (CellTiter 96); assay type: cell-based; settings: 72 hours incubation, read-out: 697 TOXICITY
# Summary of the method: (§1)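 Mitochondrial-function readout (CellTiter 96 Aqueous One) after 72 h compound exposure, begun 24 h post-seeding. Dose ranges: 697 cells, 1 to 10000 nM at 2×10^4 cells/well; PBMCs, 1.5 to 10000 nM at 5×10^5 cells/well.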
# [3] = tested on: peripheral blood mononuclear cells (PBMCs); assay: Cytotoxicity on PBMCs (CellTiter 96); assay type: cell-based; settings: PBMC, 72 h; read-out: PBMC TOXICITY (72 h)
# Summary of the method: as §1
# [4] = Stability to Phase I metabolism in rat S9 liver fraction; assay type: in vitro ADME; settings: after 90 min, 37° C.
# Summary of the method: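 Phase I stability in human and rat hepatic S9 at 37 °C, sampled up to 90 min. Samples were stopped with acidified acetonitrile on ice, then quantified by HPLC-UV or LC-MS/MS.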
# [5] = Stability to Phase I metabolism in human S9 liver fraction; assay type: in vitro ADME
# Experimental: Test compounds were incubated in rat and human liver S9 fraction at 37° C. up to 90 minutes in order to evaluate their stability to Phase I metabolism by hepatic enzymes. […] The reaction was stopped placing samples on ice bath and adding acidified acetonitrile. After centrifugation (10 minutes at 14000 rpm) an aliquot of the supernatant was diluted water, filtered with 0.45 μm regenerated cellulose syringe filters and injected in HPLC-UV or in LC-MS/MS. The percentages of the amount remaining at the various incubation times with respect to the initial amount were calculated. The intrinsic clearance was also calculated.
# [6] = Stability in rat plasma; assay type: in vitro ADME; settings: after 4 hours, 37° C.
# Summary of the method: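 Compounds incubated at 37° C in rat or human plasma at 50 μM (UV/HPLC) or 1 or 2 μM (LC-MS/MS) for 0–4 h. Reaction stopped with acidified acetonitrile on ice; percent remaining versus initial amount and plasma half-life calculated.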
# [7] = Stability in human plasma; assay type: in vitro ADME; settings: after 4 hours, 37° C.
# Experimental: In order to evaluate the stability to circulating enzymes, test compounds were incubated in human and rat plasma at 37° C. in a thermostated oscillating bath. Each test compound was incubated at μM (50 μM when the samples were analysed by UV/HPLC, 1 or 2 μM when the samples were analysed by LC-MS/MS) concentration for 0, 15, 30 min and 1, 2 and 4 hours. The reaction was stopped placing tubes on ice bath and adding acidified acetonitrile. After centrifugation for 10 minutes at 14000 rpm, an aliquot of the supernatant was diluted with water, filtered with 0.45 μm syringe filters and injected in HPLC-UV or in LC-MS/MS. The percentages of amount remaining at the various times of incubation with respect to initial amount were calculated. The half-life in plasma was also calculated.
# [8] = tested on: human PBMCs; assay: Mixed Lymphocytes Reaction (MLR) with human PBMCs (IFN-γ, TNF-α, IL-6); assay type: cell-based; settings: PBMC, 144 h, two-way MLR, 6 days, 0.05 μM, negative = induction
# Experimental: In order to study HDAC6 inhibitors ability to inhibit the activation of allogenic T CD4+ cells, a Mixed Lymphocytes Reaction (MLR or mixed lymphocyte culture, CLM) assay was performed. This is a reaction involving blast transformation of in vitro cultured lymphocytes in the presence of allogeneic lymphocytes. There is the so-called “two-way” reaction wherein the two lymphocyte populations stimulate each other to proliferate, and the so-called “one way” reaction, wherein the proliferation of one of the two populations is inhibited by mitomycin C or irradiation, these cells provide proliferation stimulus (stimulator) to the so-called “responder” cells.
# Human peripheral blood mononuclear cells (PBMCs) used in MLR were obtained by Ficoll gradient separation from Buffy Coat of healthy donors.
# We used a two-way MLR. The cells from the two donors were plated at 1:1 ratio (allogenic stimulation) to the final concentration of 2×10^5 per well in U-bottom 96 well plates in RPMI 1640 medium with 10% FBS and antibiotics. As a control we individually plated the cells from each donor (singenic stimulus). The experiment for each inhibitor was set in deduplicate for allogeneic stimuli and in quintuplicate for singenic stimuli. The cells were cultured for 6 days in an incubator at 37° C.
# After 6 days the effect of the test compounds was evaluated by measuring the production of pro-inflammatory cytokines recognized to be characteristics of this assay.
# For this purpose, the culture supernatant was harvested and used for IFN-γ, TNF-α and IL-6 inflammatory cytokine assay.
# The JAK inhibitor ruxolitinib was used as the active reference compound in the test.
# Values in the table indicate the inhibition percentages. Negative values indicate an induction.
SMILES,IC50 ([1]; read-out: HDAC6 IC50),residual percentage in rat S9 fraction [4],"residual percentage in human S9 fraction ([5]; human, 90 min, pH 7.4)",residual percentage in rat plasma [6],residual percentage in human plasma [7],IC50 [2],IC50 [3],inhibition at 0.05 µM ([8]; read-out: MLR IFN-γ inhibition percentage),inhibition at 0.05 µM ([8]; read-out: MLR IL-6 inhibition percentage),inhibition at 0.05 µM ([8]; read-out: MLR TNF-α inhibition percentage),IC50 ([1]; HDAC6 IC50 (nM)),"residual percentage in human S9 fraction ([5]; human liver S9 fraction, after 90 min, 37° C.)"
"Cn1c(Sc2c(F)cc(C(=O)NO)cc2F)nnc1-c1ccccn1 [comp. 14, 3,5-difluoro-N-hydroxy-4-((4-methyl-5-(pyridin-2-yl)-4H-1,2,4-triazol-3-yl)thio)benzamide]",8 nM,88%,87%,38%,77%,3940 nM,> 10000 nM,–,–,–,–,–
CN(C)S(=O)(=O)c1ccc(F)c(-c2nnc(Sc3ccc(C(=O)NO)cc3)n2C)c1 [compound 76],28 nM,76%,77%,98%,96%,> 10000 nM,> 10000 nM,–,–,–,–,–
"N#CC[C@H](C1CCCC1)n1cc(-c2ncnc3[nH]ccc23)cn1 [ruxolitinib, reference compound]",–,–,–,–,–,–,–,87.9%,73.3%,61.2%,–,–
"Cn1c(Sc2c(F)cc(C(=O)NO)cc2F)nnc1-c1ccc(CCN2CCCC2)nc1 [comp. 210, 3,5-difluoro-4-[[4-methyl-5-[6-(2-pyrrolidin-1-ylethyl)-3-pyridyl]-1,2,4-triazol-3-yl]sulfanyl]benzenecarbohydroxamic acid]",7 nM,71%,80%,84%,79%,10400 nM,> 10000 nM,–,–,–,–,–
"Cc1cc(-c2nnc(Sc3c(F)cc(C(=O)NO)cc3F)n2C)nn1C [comp. 100, 4-[[5-(1,5-dimethylpyrazol-3-yl)-4-methyl-1,2,4-triazol-3-yl]sulfanyl]-3,5-difluoro-benzenecarbohydroxamic acid]",–,30%,–,80%,92%,7090 nM,10000 nM,–,–,–,7 nM,76%
CC1(C)CC(=O)c2c(S(C)(=O)=O)sc(-c3nnn(Cc4ccc(C(=O)NO)cc4)n3)c2C1 [compound 74],17 nM,61%,84%,94%,100%,2280 nM,2000 nM,–,–,–,–,–

# More lines, main results first:
IC50 ([1]; read-out: HDAC6 IC50),residual percentage in rat S9 fraction [4],"residual percentage in human S9 fraction ([5]; human, 90 min, pH 7.4)",residual percentage in rat plasma [6],residual percentage in human plasma [7],SMILES,IC50 [2],IC50 [3],inhibition at 0.05 µM ([8]; read-out: MLR IFN-γ inhibition percentage),inhibition at 0.05 µM ([8]; read-out: MLR IL-6 inhibition percentage),inhibition at 0.05 µM ([8]; read-out: MLR TNF-α inhibition percentage),IC50 ([1]; HDAC6 IC50 (nM)),"residual percentage in human S9 fraction ([5]; human liver S9 fraction, after 90 min, 37° C.)"
4 nM,88%,101.7%,98.5%,94.3%,"O=C(NO)c1ccc(Cn2nnnc2-c2ccccn2)cc1 [comp. 20, N-hydroxy-4-((5-(pyridin-2-yl)-1H-tetrazol-1-yl)methyl)benzamide]",1120 nM,2000 nM,–,–,–,–,–
14 nM,58%,74%,94%,95%,"Cn1c(Sc2c(F)cc(C(=O)NO)cc2F)nnc1-c1coc(CN2CCOCC2)c1 [comp. 203, 3,5-difluoro-4-[[4-methyl-5-[5-(morpholinomethyl)-3-furyl]-1,2,4-triazol-3-yl]sulfanyl]benzenecarbohydroxamic acid]",15200 nM,> 10000 nM,–,–,–,–,–
11 nM,66%,93%,79%,100%,"CN(C)S(=O)(=O)c1cccc(-c2nnc(Cc3ccc(C(=O)NO)cc3)o2)c1 [comp. 3, 4-((5-(3-(N,N-dimethylsulfamoyl)phenyl)-1,3,4-oxadiazol-2-yl)methyl)-N-hydroxybenzamide]",2880 nM,735 nM,–,–,–,–,–
